Assay results as given in US5106407A, “Iodones and methods for antimicrobial use” (priority 1989, dated 1992).
Converted amounts (≈) assume the structure as drawn. Like-named read-outs stand apart in the source and are kept apart here.

How the values were obtained:
Enterobacter aerogenes = assay: minimum inhibitory concentration (MIC), agar dilution; format: cell-based; conditions: for MIC: Klebsiella aerogenes
Description: (§1) The minimum inhibitory concentration (MIC) for the compound of Example 19, i.e., (2-nitrophenyl)-iodonium 2,2-dimethyl-4,6-dioxo-1,3-dioxan-5-ylide was determined for 9 bacteria (using nutrient agar) and 5 yeast and fungi (using malt yeast agar). A one percent solution of this test compound (i.e., the compound of Example 19) was prepared in a mixture of acetone-water. Nutrient agar was prepared at pH 6.8 using deionized water according to standard Difco procedures. Malt yeast agar was prepared by adding 3 g Bacto yeast extract and 42 g Bacto Malt agar per liter of deionized water. The agar (nutrient agar when testing with bacteria and malt yeast agar when testing with yeast and fungi) was dispensed in 30 mL aliquots into 25×200 millimeter (mm) test tubes, capped and autoclaved for 15 min at 115° C. The test tubes containing the agar were cooled in a water bath until the temperature of the agar was 48° C. and then an appropriate amount of the one percent solution of the test compound was added (except in the controls where no test compound was added with the acetone-water) to the respective test tubes so that final concentrations of 500, 250, 100, 50, 25, 10, 5, 2.5, 1.0 and 0 parts per million (ppm) of the test compound in the agar were obtained. The agar solutions were each mixed and poured into individual petri plates so that each petri plate contained agar having a known concentration of test compound dispersed therein. After drying for 24 hr, the petri plates were inoculated with bacteria when the petri plates contained nutrient broth agar or with fungi and yeast when the petri plates contained malt yeast agar.
(§2) The inoculation with bacteria was accomplished using the following procedure. Twenty-four hr cultures of each of the bacteria were prepared by incubating the respective bacteria in tubes containing nutrient broth for 24 hr at 30° C. in a shaker. Dilutions of each of the 24 hr cultures were made so that 9 separate suspensions (one for each of the 9 test bacteria) were made, each containing about 10^8 colony forming units (CFU) per mL of suspension of a particular bacteria. Aliquots of 0.3 mL of each of the above suspensions were used to fill individual wells of a Steer's Replicator. For each microbial suspension, 0.3 mL was used to fill 3 wells (i.e., 3 wells of 0.3 mL each) so that for the 9 different bacteria 27 wells were filled. The Steer's Replicator was then used to inoculate the petri plates.
(§3) The petri plates were incubated at 30° C. for 48 hr and then read to determine if the test compound (i.e., the compound of Example 19) which was incorporated into the agar prevented growth of the respective bacteria. The minimum inhibitory concentration (MIC) for each bacteria was defined as the lowest concentration of the test compound which prevented growth of that bacteria.
(§4) In a similar procedure, the MIC (in ppm) of the compound of Example 11 (i.e., (2-nitrophenyl)-iodonium 2,6-dioxocyclohexylide) for various organisms was determined at an acid pH (about 6.8) and at an alkaline pH (about 8.2).
(§5) Using similar procedures, the MIC's (in ppm) of various compounds of Formula I and/or Formula II were determined for the organisms Enterobacter aerogenes and Bacillus subtilis in a neutral solution (pH about 6.8) and in an alkaline medium (pH about 8.2).

Bacillus subtilis = assay: as above; format: cell-based; conditions: for MIC: Bacillus subtilis
Description: as §1, §2, §3, §4, §5

[1] = alkaline growth medium (pH = 8.2), read-out: MIC (AEA)
[2] = neutral growth medium (pH = 6.8), read-out: MIC (NEA)
[3] = alkaline growth medium (pH = 8.2), read-out: MIC (ABS)
[4] = neutral growth medium (pH = 6.8), read-out: MIC (NBS)
[5] = alkaline growth medium (pH = 8.2)
[6] = neutral growth medium (pH = 6.8)

| Compound | MIC (Enterobacter aerogenes; [1]) [µg/mL] | MIC (Enterobacter aerogenes; [2]) [µg/mL] | MIC (Bacillus subtilis; [3]) [µg/mL] | MIC (Bacillus subtilis; [4]) [µg/mL] | MIC (AEA) (Enterobacter aerogenes; [5]) [ppm] | MIC (NEA) (Enterobacter aerogenes; [6]) [ppm] | MIC (ABS) (Bacillus subtilis; [5]) [ppm] | MIC (NBS) (Bacillus subtilis; [6]) [ppm] |
| --- | --- | --- | --- | --- | --- | --- | --- | --- |
| O=C1CCC(=O)[C-]1[I+]c1ccccc1[N+](=O)[O-] [Example 10, (2-Nitrophenyl)-iodonium 2,5-dioxocyclopentyl-1-ylide] | > 500 | ≤ 10 | > 500 | 25 (≈ 72.4 µM) |  |  |  |  |
| CC1(C)CC(=O)[C-]([I+]c2ccccc2S(C)(=O)=O)C(=O)C1 [Example 12, ((2-Methylsulfonyl)phenyl)-iodonium 4,4-dimethyl-2,6-dioxocyclohexan-1-ylide] | > 500 | > 500 | 100 (≈ 238 µM) | 250 (≈ 595 µM) |  |  |  |  |
| CC1(C)CC(=O)[C-]([I+]c2ccccc2[N+](=O)[O-])C(=O)C1 [Example 14, (2-Nitrophenyl)-iodonium 4,4-dimethyl-2,6-dioxocyclohexylide] | ≤ 1 | 2.5 (≈ 6.46 µM) | ≤ 1 | 2.5 (≈ 6.46 µM) |  |  |  |  |
| CC1CC(=O)[C-]([I+]c2ccccc2[N+](=O)[O-])C(=O)C1 [Example 15, (2-Nitrophenyl)-iodonium 4-methyl-2,6-dioxocyclohexan-1-ylide] | 100 (≈ 268 µM) | ≤ 10 | ≤ 10 | ≤ 10 |  |  |  |  |
| Cc1ccc([I+][C-]2C(=O)OC(C)(C)OC2=O)c([N+](=O)[O-])c1 [Example 16, (4-Methyl-2-nitrophenyl)-iodonium 2,2-dimethyl-4,6-dioxo-1,3-dioxan-5-ylide] | 10 (≈ 24.7 µM) | 2.5 (≈ 6.17 µM) | 5 (≈ 12.3 µM) | 2.5 (≈ 6.17 µM) |  |  |  |  |
| Cc1ccc(I=C2C(=O)OC(C)(C)OC2=O)c([N+](=O)[O-])c1C [Example 17, (3,4-Dimethyl-2-nitrophenyl)-iodonium 2,2-dimethyl-4,6-dioxo-1,3-dioxan-5-ylide] |  |  |  |  | 25 | 25 | < 10 | < 10 |
| CC1(C)OC(=O)[C-]([I+]c2ccc(Cl)cc2[N+](=O)[O-])C(=O)O1 [Example 18, (4-chloro-2-nitrophenyl)-iodonium 2,2-dimethyl-4,6-dioxo-1,3-dioxan-5-ylide] | 250 (≈ 587 µM) | 100 (≈ 235 µM) | 250 (≈ 587 µM) | 100 (≈ 235 µM) |  |  |  |  |
| COc1ccc([I+][C-]2C(=O)OC(C)(C)OC2=O)c([N+](=O)[O-])c1 [Example 20, (4-Methoxy-2-nitrophenyl)-iodonium 2,2-dimethyl-4,6-dioxo-1,3-dioxan-5-ylide] | 25 (≈ 59.4 µM) | ≤ 10 | 25 (≈ 59.4 µM) | ≤ 10 |  |  |  |  |
| CC1(C)OC(=O)[C-]([I+]c2ccccc2S(C)(=O)=O)C(=O)O1 [Example 21, ((2-Methylsulfonyl)phenyl)-iodonium 2,2-dimethyl-4,6-dioxo-1,3-dioxan-5-ylide] | > 500 | > 500 | 50 (≈ 118 µM) | 25 (≈ 58.9 µM) |  |  |  |  |
| O=c1oc2ccc(F)cc2c(=O)[c-]1[I+]c1ccccc1[N+](=O)[O-] [Example 22, (2-Nitrophenyl)-iodonium 6-fluoro-3,4-dihydro-2,4-dioxo-2H-benzopyran-3-ylide] | 250 (≈ 585 µM) | ≤ 10 | 100 (≈ 234 µM) | ≤ 10 |  |  |  |  |
| O=c1oc2ccc(Br)cc2c(=O)[c-]1[I+]c1ccccc1[N+](=O)[O-] [Example 23, (2-Nitrophenyl)-iodonium 6-bromo-3,4-dihydro-2,4-dioxo-2H-benzopyran-3-ylide] | > 500 | > 500 | 250 (≈ 512 µM) | 100 (≈ 205 µM) |  |  |  |  |
| O=C(O)c1ccc2oc(=O)[c-]([I+]c3ccccc3[N+](=O)[O-])c(=O)c2c1 [Example 26, (2-Nitrophenyl)-iodonium 6-carboxy-3,4-diohydro-2,4-dioxo-2H -benzopyran-3-ylide] | 250 (≈ 552 µM) | 250 (≈ 552 µM) | 250 (≈ 552 µM) | ≤ 10 |  |  |  |  |
| CS(=O)(=O)c1ccccc1[I+][c-]1c(=O)oc2ccc(Cl)cc2c1=O [Example 27, ((2-Methylsulfonyl)phenyl)-iodonium 6-chloro-3,4-dihydro-2,4-dioxo-2H-benzopyran-3-ylide] | > 500 | > 500 | ≤ 10 | ≤ 10 |  |  |  |  |
| COc1ccc2oc(=O)[c-]([I+]c3ccccc3S(C)(=O)=O)c(=O)c2c1 [Example 28, ((2-Methylsulfonyl)phenyl)-iodonium 3,4-dihydro-6-methoxy-2,4-dioxo-2H-benzopyran-3-ylide] | > 500 | > 500 | ≤ 10 | ≤ 10 |  |  |  |  |
| CS(=O)(=O)c1ccccc1[I+][c-]1c(=O)oc2ccc(C(=O)O)cc2c1=O [Example 29, ((2-Methylsulfonyl)phenyl)-iodonium 6-carboxy-3,4-dihydro-2,4-dioxo-2H-benzopyran-3-ylide] | > 500 | > 500 | ≤ 10 | ≤ 10 |  |  |  |  |
| CS(=O)(=O)c1ccccc1[I+][c-]1c(=O)oc2ccc(Br)cc2c1=O [Example 30, ((2-Methylsulfonyl)phenyl)-iodonium 6-bromo-3,4-dihydro-2,4-dioxo-2H-benzopyran-3-ylide] | > 500 | > 500 | ≤ 10 | ≤ 10 |  |  |  |  |
| O=c1oc2ccccc2c(=O)[c-]1[I+]c1ccccc1[N+](=O)[O-] [Example 32, (2-Nitrophenyl)-iodonium 3,4-dihydro-2,4-dioxo-2H-benzopyran-3-ylide] | 25 (≈ 61.1 µM) | ≤ 10 | ≤ 10 | ≤ 10 |  |  |  |  |
| COc1ccc2oc(=O)[c-]([I+]c3ccccc3[N+](=O)[O-])c(=O)c2c1 [Example 33, (2-Nitrophenyl)-iodonium 3,4-dihydro-6-methoxy-2,4-dioxo-2H-benzopyran-3-ylide] | > 500 | > 500 | ≤ 10 | ≤ 10 |  |  |  |  |
| Cc1cccc2c(=O)[c-]([I+]c3ccccc3[N+](=O)[O-])c(=O)oc12 [Example 34, (2-Nitrophenyl)-iodonium 3,4-dihydro-8-methyl-2,4-dioxo-2H-benzopyran-3-ylide] | 500 (≈ 1180 µM) | 500 (≈ 1180 µM) | 25 (≈ 59.1 µM) | ≤ 10 |  |  |  |  |
| CCn1c(=O)[c-]([I+]c2ccccc2[N+](=O)[O-])c(=O)n(CC)c1=S [Example 36, (2-Nitrophenyl)-iodonium 1,3-diethylhexahydro-4,6-dioxo-2-thiopyrimidin-5-ylide] | > 500 | 500 (≈ 1120 µM) | > 500 | > 500 |  |  |  |  |
| O=c1[nH]c2ccccc2c(=O)[c-]1[I+]c1ccccc1[N+](=O)[O-] [Example 41, (2-Nitrophenyl)-iodonium 1,2,3,4-tetrahydro-2,4-dioxoquinolin-3-ylide] | > 500 | ≤ 10 | 500 (≈ 1230 µM) | ≤ 10 |  |  |  |  |
| CS(=O)(=O)c1ccccc1[I+][c-]1c(=O)cc[nH]c1=O [Example 42, ((2-Methylsulfonyl)phenyl)-iodonium 1,2,3,4-tetrahydro-2,4-dioxopyridine3-ylide] | > 500 | 500 (≈ 1280 µM) | 500 (≈ 1280 µM) | 500 (≈ 1280 µM) |  |  |  |  |
| O=c1cc[nH]c(=O)[c-]1[I+]c1ccccc1[N+](=O)[O-] [Example 43, (2-Nitrophenyl)-iodonium 1,2,3,4-tetrahydro-2,4-dioxopyridin-3-ylide] | > 500 | 500 (≈ 1400 µM) | 500 (≈ 1400 µM) | 50 (≈ 140 µM) |  |  |  |  |
| O=c1[nH]c(=O)[c-]([I+]c2ccccc2[N+](=O)[O-])c(=O)[nH]1 [Example 44, (2-Nitrophenyl)-iodonium hexahydro-2,4,6-trioxo-5-pyrimidin-1-ylide] | 500 (≈ 1330 µM) | 100 (≈ 267 µM) | > 500 | 100 (≈ 267 µM) |  |  |  |  |
| Cc1cc(=O)[c-]([I+]c2ccccc2S(C)(=O)=O)c(=O)o1 [Example 46, ((2-Methylsulfonyl)phenyl)-iodonium 3,4-dihydro-6-methyl-2,4-dioxo-2H-pyran-3-ylide] | 50 (≈ 123 µM) | 100 (≈ 246 µM) | ≤ 10 | ≤ 10 |  |  |  |  |
| (2-Nitrophenyl)-iodonium 3,4,5,6-tetrahydro-4,6-doxo-5-pyrimidinylide [Example 35] |  |  |  |  | > 500 |  |  |  |
